# Key:
# [1] = system: HIV reverse transcription in U87MG; assay: Early and late HIV reverse transcription in U87MG, real-time PCR; format: cell-based; conditions: IFNγ pre-treated 24 h
# Method: FIG. 31 Comparative analysis of early and late HIV reverse transcription (RT) between infected untreated and infected IFN-γ treated astrocytes. U87MG cells were left untreated or treated with IFN-γ prior to HIV infection as described in Materials and Methods. Total DNA was isolated and amplified for tierh early HIV reverse transcription (reverse transcription initiation) using primer pair R and U5 at 24 h postinfection or late HIV transcription using primer pair R and 5NC at 96 h postinfection. (A) Comparison of amplified HIV DNA between untreated and IFN-γ-treated cultures. […] Rn stands for reading normalized, which equals the SyberGreen value divided by the ROX reference dye value.
# Restriction to HIV replication is not at the level of HIV entry and reverse transcription. […] Early HIV reverse transcription was evaluated by real-time PCR at […] post-infection by amplifying with the R/U5 primer pairs, which detect negative-strand “strong-stop” DNA indicative of reverse transcription initiation. […]
# Levels of HIV reverse transcription are similar between untreated and IFN-γ-treated astrocytes. […] Early HIV reverse transcription was evaluated by real-time PCR at 24 h postinfection by amplification with the R/U5 primer pair, which detects negative-strand “strong-stop” DNA indicative of reverse transcription initiation). […]
# [2] = system: HIV-Bal in U87MG; assay: Cytokine pre-stimulation and HIV-Bal replication in U87MG, p24 ELISA; format: cell-based; conditions: 24 h pre-stimulation, 0-1000 ng/ml, p24 day 7
# Method: U87MG (A) and HFA (B) were pre-stimulated with increasing doses of either GM-CSF or IFNγ for 24 h followed by HIV-BAL infection for 24 hours. HIV replication was determined by measuring HIV p24 levels by ELISA seven days post-infection. The dotted line represents basal level of HIV infection of astrocytes without cytokine pre-treatment. Data is representative of three experiments performed in quadruplicate. Error bars represent standard deviations of the mean. Asterisks denote significant values (p<0.05) in comparison to untreated cultures as evaluated by analysis of variance.
# To determine if pre-stimulation of astrocytes primes astrocytes, for productive HIV infection, U87MG and HFA were pre-treated for 24 hours with TNFγ, GM-CSF, or IFNγ at various concentrations (0-1000 ng/ml) then infected with HIV-Bal at 10 ng of HIV p24/1×10^6 cells for 24 hours. The cells were then washed extensively or trypsinized to remove bound virus and propagated in the presence of the respective cytokine concentration. HIV infection was monitored by p24 ELISA seven days post-infection. […]
# IFN-γ Treatment and HIV Infection. […] HIV infection was monitored at day 7 postinfection by measuring p24 levels by conventional enzyme-linked immunosorbent assay (ELISA) (National Cancer Institute, Frederick, Md.).
substance,measurement,setting,value
"IFNγ: cytokine secreted by lymphocytes, activated microglia and astrocytes; used to prime astrocytes",Early HIV reverse transcription DNA (R/U5) vs untreated,[1],similar
same,Late HIV reverse transcription DNA (R/5NC) vs untreated,[1],similar
same,Maximal induction of HIV replication vs untreated/infected cultures,[2],10 fold

# From patent US20080193563A1, “HARNESSING WNT SIGNALING TO RESTRICT HIV REPLICATION” (priority 2006, published 2008)
